Data set [1] addresses T1, Cannabinoid receptor 1 (Homo sapiens, UniProt P21554). The data set is described as follows: Agonist activity at human recombinant cannabinoid CB1 receptor expressed in MMY23 Saccharomyces cerevisiae assessed as degradation of FDGlu to fluorescein after 24 hrs by spectrofluorimetry. The format is functional.
Data set [2] concerns the target T2, Cannabinoid receptor 2 (Homo sapiens, UniProt P34972). The data set is described as follows: Agonist activity at human recombinant cannabinoid CB2 receptor expressed in MMY23 Saccharomyces cerevisiae assessed as degradation of FDGlu to fluorescein after 24 hrs by spectrofluorimetry. The format is functional.
The target of data set [3] is T2, Cannabinoid receptor 2. Briefly: Agonist activity at human recombinant cannabinoid CB2 receptor expressed in MMY23 Saccharomyces cerevisiae assessed as degradation of FDGlu to fluorescein after 24 hrs by spectrofluorimetry relative to HU210. The format is functional.
In data set [4] the target is T1, Cannabinoid receptor 1. The data set is described as follows: Agonist activity at human recombinant cannabinoid CB1 receptor expressed in MMY23 Saccharomyces cerevisiae assessed as degradation of FDGlu to fluorescein after 24 hrs by spectrofluorimetry relative to HU210. Type of data set: functional.
Data set [5] addresses T1, Cannabinoid receptor 1. The data set is described as follows: Agonist activity at human recombinant cannabinoid CB1 receptor expressed in MMY23 Saccharomyces cerevisiae assessed as degradation of FDGlu to fluorescein at 30 uM after 24 hrs by spectrofluorimetry. Type of data set: functional.
The species entered for data set [6] is Homo sapiens. Briefly: Selectivity ratio of EC50 for human recombinant cannabinoid CB1 receptor to EC50 for human recombinant cannabinoid CB2 receptor.
Data set [7] is described as follows: Intrinsic clearance in human liver microsomes. Type of data set: ADME, Microsome.
A short description of data set [8]: Intrinsic clearance in rat liver microsomes. The format is ADME, Microsome.
The target in data set [9] is Cytochrome P450 1A2 (Homo sapiens, UniProt P05177). Briefly: Inhibition of CYP1A2. The format is ADME.
For data set [10], the target named is Cytochrome P450 2C9 (Homo sapiens, UniProt P11712). The data set is described as follows: Inhibition of CYP2C9. The format is ADME.
Data set [11] concerns the target Cytochrome P450 2C19 (Homo sapiens, UniProt P33261). Briefly: Inhibition of CYP2C19. The format is ADME.
In data set [12] the target is Cytochrome P450 2D6 (Homo sapiens, UniProt P10635). The data set is described as follows: Inhibition of CYP2D6. The format is ADME.
Data set [13] has as its target Cytochrome P450 3A4 (Homo sapiens, UniProt P08684). Briefly: Inhibition of CYP3A4. The format is ADME.
Data set [14] can be described thus: Solubility in simulated intestinal fluid at pH 5. Type of data set: physicochemical.
A short description of data set [15]: Dissociation constant, pKa of the compound. The format is physicochemical.
Data set [16] concerns Rattus norvegicus. Briefly: Antihyperalgesic activity in po dosed complete Freund's adjuvant rat model of inflammatory pain assessed as reduction of hypersensitivity administered as single dose. Type of data set: functional.
In data set [17] the test system is Rattus norvegicus. Briefly: Analgesic activity in rat joint model of chronic pain at 1 to 10 mg/kg, po BID for 5 days. Type of data set: functional, organism-based.
Data set [18] can be described thus: Ratio of drug level in brain to blood in mouse. Type of data set: ADME, tissue-based.
The nature of data set [19]: Efflux ratio of apparent permeability […] side of MDR1-expressing MDCK2 cells after 60 mins by liquid scintillation counting. The format is ADME, cell-based, Canis lupus familiaris. The conditions noted are these: dog, mdck-ii, 1 h.

Values after ≈ are worked out from the molar mass of the structure shown. Active and inactive are the calls of the source. The calls are words filed in the database; no cut-off is given here.

T1 sequence (P21554 whole entry): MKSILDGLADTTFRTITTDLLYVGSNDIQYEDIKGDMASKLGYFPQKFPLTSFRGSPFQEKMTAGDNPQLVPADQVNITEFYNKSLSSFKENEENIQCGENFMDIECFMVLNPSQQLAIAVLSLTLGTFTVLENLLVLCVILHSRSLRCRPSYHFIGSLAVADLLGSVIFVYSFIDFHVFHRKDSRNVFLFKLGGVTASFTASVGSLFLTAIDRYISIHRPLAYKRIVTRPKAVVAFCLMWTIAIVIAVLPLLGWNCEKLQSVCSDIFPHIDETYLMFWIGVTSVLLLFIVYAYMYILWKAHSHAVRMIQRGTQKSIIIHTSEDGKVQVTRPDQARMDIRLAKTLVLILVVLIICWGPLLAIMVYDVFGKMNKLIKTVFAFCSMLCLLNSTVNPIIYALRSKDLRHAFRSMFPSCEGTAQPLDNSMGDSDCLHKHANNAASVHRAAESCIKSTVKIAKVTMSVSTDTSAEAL
T2 sequence (P34972 whole entry): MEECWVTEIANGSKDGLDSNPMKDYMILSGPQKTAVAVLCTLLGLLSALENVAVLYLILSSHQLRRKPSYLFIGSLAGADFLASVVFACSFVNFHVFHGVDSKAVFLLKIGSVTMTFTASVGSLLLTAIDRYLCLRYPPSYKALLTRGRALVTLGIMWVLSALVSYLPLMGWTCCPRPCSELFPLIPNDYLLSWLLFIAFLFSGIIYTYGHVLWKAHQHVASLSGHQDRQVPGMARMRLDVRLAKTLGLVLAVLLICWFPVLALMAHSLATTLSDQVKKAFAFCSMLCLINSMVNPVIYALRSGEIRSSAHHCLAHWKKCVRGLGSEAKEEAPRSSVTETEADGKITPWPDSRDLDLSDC
Chain of Cytochrome P450 2D6 (P10635 whole entry): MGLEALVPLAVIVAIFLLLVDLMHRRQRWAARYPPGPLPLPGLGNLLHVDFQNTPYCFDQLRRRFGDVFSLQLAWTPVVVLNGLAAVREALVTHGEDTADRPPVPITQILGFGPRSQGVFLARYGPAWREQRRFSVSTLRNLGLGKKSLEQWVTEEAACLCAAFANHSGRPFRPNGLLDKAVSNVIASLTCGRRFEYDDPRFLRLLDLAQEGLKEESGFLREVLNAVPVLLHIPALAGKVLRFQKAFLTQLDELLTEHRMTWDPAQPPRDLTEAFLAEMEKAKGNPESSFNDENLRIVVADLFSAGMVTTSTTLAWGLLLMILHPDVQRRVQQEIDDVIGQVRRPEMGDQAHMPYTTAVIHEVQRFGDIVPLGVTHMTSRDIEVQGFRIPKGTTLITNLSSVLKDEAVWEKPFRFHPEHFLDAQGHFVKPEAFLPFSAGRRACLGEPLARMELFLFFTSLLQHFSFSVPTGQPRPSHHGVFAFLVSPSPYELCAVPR
Chain of Cytochrome P450 3A4 (P08684 whole entry): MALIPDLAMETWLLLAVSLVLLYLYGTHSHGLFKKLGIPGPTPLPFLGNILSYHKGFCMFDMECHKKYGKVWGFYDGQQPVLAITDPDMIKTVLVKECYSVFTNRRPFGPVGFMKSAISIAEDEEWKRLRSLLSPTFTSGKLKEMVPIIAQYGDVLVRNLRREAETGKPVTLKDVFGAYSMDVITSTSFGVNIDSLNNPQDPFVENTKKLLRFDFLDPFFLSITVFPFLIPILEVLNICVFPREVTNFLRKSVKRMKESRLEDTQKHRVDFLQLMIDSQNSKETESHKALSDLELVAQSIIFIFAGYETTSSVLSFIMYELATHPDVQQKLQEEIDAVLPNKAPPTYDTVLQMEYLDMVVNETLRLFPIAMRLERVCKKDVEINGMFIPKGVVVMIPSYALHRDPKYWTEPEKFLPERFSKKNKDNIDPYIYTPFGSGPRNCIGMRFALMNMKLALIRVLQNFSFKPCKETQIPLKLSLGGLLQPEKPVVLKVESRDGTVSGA
Chain of Cytochrome P450 1A2 (P05177 whole entry): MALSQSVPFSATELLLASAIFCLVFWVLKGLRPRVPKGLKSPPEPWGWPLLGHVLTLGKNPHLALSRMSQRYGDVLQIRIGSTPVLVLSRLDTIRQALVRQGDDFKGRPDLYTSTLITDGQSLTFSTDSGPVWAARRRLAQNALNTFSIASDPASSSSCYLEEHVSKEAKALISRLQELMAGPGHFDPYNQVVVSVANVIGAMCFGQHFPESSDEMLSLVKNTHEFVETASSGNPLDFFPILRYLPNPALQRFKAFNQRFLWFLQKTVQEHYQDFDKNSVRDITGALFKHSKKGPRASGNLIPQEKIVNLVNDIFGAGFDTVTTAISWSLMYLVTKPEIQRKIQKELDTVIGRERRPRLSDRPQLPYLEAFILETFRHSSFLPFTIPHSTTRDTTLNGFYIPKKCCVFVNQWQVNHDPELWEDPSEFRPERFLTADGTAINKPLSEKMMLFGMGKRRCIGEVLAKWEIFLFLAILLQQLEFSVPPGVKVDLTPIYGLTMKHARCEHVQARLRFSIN
Chain of Cytochrome P450 2C9 (P11712 whole entry): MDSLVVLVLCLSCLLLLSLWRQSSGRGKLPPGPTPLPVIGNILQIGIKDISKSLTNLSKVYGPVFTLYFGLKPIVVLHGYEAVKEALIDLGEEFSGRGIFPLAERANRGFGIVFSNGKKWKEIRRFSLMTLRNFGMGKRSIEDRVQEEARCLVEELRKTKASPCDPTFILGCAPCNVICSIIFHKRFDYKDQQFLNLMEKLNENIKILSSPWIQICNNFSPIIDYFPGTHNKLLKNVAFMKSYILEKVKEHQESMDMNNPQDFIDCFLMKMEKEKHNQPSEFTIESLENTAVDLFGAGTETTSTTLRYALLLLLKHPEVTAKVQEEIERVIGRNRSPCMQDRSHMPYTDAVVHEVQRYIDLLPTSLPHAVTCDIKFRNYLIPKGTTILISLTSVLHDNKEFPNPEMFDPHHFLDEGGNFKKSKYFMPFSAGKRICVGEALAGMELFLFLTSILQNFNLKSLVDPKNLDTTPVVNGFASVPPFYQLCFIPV
Chain of Cytochrome P450 2C19 (P33261 whole entry): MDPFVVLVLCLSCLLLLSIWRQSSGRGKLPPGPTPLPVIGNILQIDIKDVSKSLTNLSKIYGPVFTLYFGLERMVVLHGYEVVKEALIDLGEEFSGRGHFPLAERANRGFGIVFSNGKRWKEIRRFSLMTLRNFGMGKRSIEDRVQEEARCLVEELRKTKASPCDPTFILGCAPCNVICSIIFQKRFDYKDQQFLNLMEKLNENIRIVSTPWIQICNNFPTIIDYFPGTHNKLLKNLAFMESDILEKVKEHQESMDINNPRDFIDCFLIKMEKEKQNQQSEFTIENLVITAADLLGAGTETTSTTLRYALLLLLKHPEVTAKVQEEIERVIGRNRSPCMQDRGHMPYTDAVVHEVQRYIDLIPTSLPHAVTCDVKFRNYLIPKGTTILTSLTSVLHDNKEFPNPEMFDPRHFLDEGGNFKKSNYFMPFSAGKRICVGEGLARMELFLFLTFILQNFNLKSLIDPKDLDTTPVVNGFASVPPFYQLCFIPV

For `CCC(CC)Nc1ncc(C(=O)N2CCOCC2)c2c(C)c[nH]c12`, the half-maximal effective concentration (EC50) in data set [1] is > 30 µM; in data set [2], 4.67 µM. Moreover, in data set [3], the Efficacy was 59%.

As to `Cc1c[nH]c2c(Nc3ccccc3Cl)ncc(C(=O)N3CCOCC3)c12`, the figures for the EC50 in data set [1] and in data set [2] were 15.8 µM and 0.123 µM, respectively. The Efficacy was determined as 56% in [4] and 82% in data set [3]. Also, in [5], the result was inactive. The Ratio EC50 in data set [6] is > 100.

Consider `Cc1c[nH]c2c(Nc3cccc(Cl)c3)ncc(C(=O)NCC3CCOCC3)c12`, for which the EC50 is > 30 µM in data set [1] and 0.265 µM in [2]. Besides, in data set [3], the Efficacy was 95%.

Consider `COc1ccccc1Nc1ncc(C(=O)N2CCOCC2)c2c(C)c[nH]c12`, for which the 50% effective concentration (EC50) in data set [1] was > 10 µM; in data set [2], 0.349 µM. Moreover, in data set [3], the Efficacy turned out to be 72%. In addition, the result in data set [5] was inactive. For the same compound, the Ratio EC50 in data set [6] was > 100.

For `Cc1c[nH]c2c(Nc3cccc(C(F)(F)F)c3)ncc(C(=O)N3CCOCC3)c12`, the figures for the concentration for a half-maximal effect (EC50) in data set [1] and in data set [2] were > 30 µM and 0.015 µM, respectively. Moreover, the Efficacy in [3] is 86%. For the same compound, the result in data set [5] was inactive. In addition, in data set [6], the Ratio EC50 is > 100.

Consider `Cc1c[nH]c2c(Nc3cccc(Cl)c3)ncc(C(=O)NCc3ccc(F)cc3)c12`, for which the EC50 is > 30 µM in [1] and 0.145 µM in data set [2]. For the same compound, the Efficacy in [3] is 58%.

In the case of `Cc1cn(C)c2c(Nc3cccc(Cl)c3)ncc(C(=O)N3CCOCC3)c12`, the EC50 stood at 10 µM in data set [1] and 0.654 µM in data set [2]. Also, the Efficacy in [4] is 45%; in data set [3] it was 47%.

For `Cc1c[nH]c2c(Nc3cccc(Br)c3)ncc(C(=O)N3CCOCC3)c12`, the values for the concentration giving a half-maximal response (EC50) in [1] and in [2] were 6.3 µM and 0.01 µM, respectively. The Efficacy in data set [4] was 43%; in [3] it was 78%.

Consider `Cc1c[nH]c2c(Nc3cccc(Cl)c3)ncc(C(=O)N3CCOCC3)c12`, for which the half-maximal effective concentration (EC50) in [1] was 10 µM; in [2], 0.011 µM. Also, the Efficacy in data set [4] amounted to 74%; in data set [3], 82%. For the same compound, the results for the intrinsic clearance (CLint scaled) in [7] and in [8] were 1.6 mL/min/kg and 1.4 mL/min/kg, respectively. The IC50 is 28 µM in data set [9]; 4.7 µM in [10]; 29 µM in data set [11]; 14 µM in data set [12]; 48 µM in [13]. In addition, in data set [14], the solubility is 160 µg/mL (≈ 431 µM). Besides, the pKa in data set [15] came to 5.8. The 50% effective dose (ED50) in [16] was 0.12 mg/kg. For the same compound, in [17], the outcome was inactive. The concentration ratio (Kp) in data set [18] was < 0.05. In addition, the Ratio in data set [19] was 74. The Ratio EC50 in [6] is 1000.

Regarding `Cc1c[nH]c2c(Nc3cccc(Cl)c3)ncc(C(=O)NC3CCOCC3)c12`, the figures for the EC50 in [1] and in data set [2] were > 30 µM and 1.7 µM, respectively. The Efficacy in data set [3] was found to be 79%.
